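1) Cells in 96-well plates. 2) Compound, 48 h, 5 concentrations. 3) Linear interpolation between surrounding doses. 4) Unreached endpoint = highest concentration. GI50 = concentration required for 50% inhibition of growth. TGI: concentration producing complete growth inhibition.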
Legend:
Assay in all cases: inhibition of tumour cell growth, NCI panel, 48 h
786-0 renal = system: 786-0 renal
EKVX NSCLC = system: EKVX NSCLC
K-562 leukemia = system: K-562 leukemia
KM12 colon = system: KM12 colon
LOX IMVI melanoma = system: LOX IMVI melanoma
OVCAR-8 ovarian = system: OVCAR-8 ovarian
RPMI-8226 leukemia = system: RPMI-8226 leukemia
SK-MEL-28 melanoma = system: SK-MEL-28 melanoma
SNB-75 CNS = system: SNB-75 CNS
UACC-62 melanoma = system: UACC-62 melanoma

COc1cc(-c2nc(SCCC(C)C)nc(Nc3ccc(S(N)(=O)=O)cc3)c2C#N)cc(OC)c1OC
GI50 (786-0 renal): 2.16 µM
TGI (786-0 renal): 4.87 µM
GI50 (EKVX NSCLC): 3.42 µM
TGI (EKVX NSCLC): > 100 µM
GI50 (K-562 leukemia): 2.73 µM
TGI (K-562 leukemia): > 100 µM
GI50 (KM12 colon): 2.2 µM
TGI (KM12 colon): 5.56 µM
GI50 (LOX IMVI melanoma): 1.91 µM
TGI (LOX IMVI melanoma): 4.41 µM
GI50 (OVCAR-8 ovarian): 4 µM
TGI (OVCAR-8 ovarian): > 100 µM
GI50 (RPMI-8226 leukemia): 1.73 µM
TGI (RPMI-8226 leukemia): 6.79 µM
GI50 (SK-MEL-28 melanoma): 4.04 µM
TGI (SK-MEL-28 melanoma): > 100 µM
GI50 (SNB-75 CNS): 2.15 µM
TGI (SNB-75 CNS): 54.2 µM
GI50 (UACC-62 melanoma): 3 µM
TGI (UACC-62 melanoma): 22.9 µM

Cn1cc(-c2ccc(-c3ccc(C4=NC5(CC5)C(=O)N4C[C@@H]4CCN(C(=O)C5CC5)C4)cc3)cc2)cn1
GI50 (786-0 renal): 10.5 µM
TGI (786-0 renal): > 100 µM
GI50 (EKVX NSCLC): 12.9 µM
TGI (EKVX NSCLC): 55.8 µM
GI50 (K-562 leukemia): 7.11 µM
TGI (K-562 leukemia): > 100 µM
GI50 (KM12 colon): 5.39 µM
TGI (KM12 colon): 32.1 µM
GI50 (LOX IMVI melanoma): 1.47 µM
TGI (LOX IMVI melanoma): 18 µM
GI50 (OVCAR-8 ovarian): 19.4 µM
TGI (OVCAR-8 ovarian): > 100 µM
GI50 (RPMI-8226 leukemia): 0.0883 µM
TGI (RPMI-8226 leukemia): 19.7 µM
GI50 (SK-MEL-28 melanoma): 20.3 µM
TGI (SK-MEL-28 melanoma): 79 µM
GI50 (SNB-75 CNS): 20 µM
TGI (SNB-75 CNS): > 100 µM
GI50 (UACC-62 melanoma): 10.2 µM
TGI (UACC-62 melanoma): 34.5 µM

CC12CCC(Br)C(C)(C)C1CC=C1C(=O)OCC1O2 (stereo not given)
TGI (786-0 renal): > 48.6 µM
TGI (EKVX NSCLC): 47 µM
TGI (K-562 leukemia): > 100 µM
TGI (KM12 colon): 32.3 µM
TGI (LOX IMVI melanoma): 30.4 µM
TGI (OVCAR-8 ovarian): 34.9 µM
TGI (RPMI-8226 leukemia): > 60.6 µM
TGI (SK-MEL-28 melanoma): 28.6 µM
TGI (SNB-75 CNS): 34.7 µM
TGI (UACC-62 melanoma): 25.7 µM

CCNC(=O)O[C@H]1CN[C@H](C#Cc2cc3ncnc(Nc4ccc(OCc5cccc(F)c5)c(Cl)c4)c3s2)C1
GI50 (786-0 renal): 5.69 µM
TGI (786-0 renal): > 16.6 µM
GI50 (EKVX NSCLC): 0.668 µM
TGI (EKVX NSCLC): > 14.8 µM
GI50 (K-562 leukemia): 9.45 µM
TGI (K-562 leukemia): > 25 µM
GI50 (KM12 colon): 6.59 µM
TGI (KM12 colon): > 23.1 µM
GI50 (LOX IMVI melanoma): 8.12 µM
TGI (LOX IMVI melanoma): > 25 µM
GI50 (OVCAR-8 ovarian): 6.25 µM
TGI (OVCAR-8 ovarian): > 25 µM
GI50 (RPMI-8226 leukemia): 5.41 µM
TGI (RPMI-8226 leukemia): > 23.4 µM
GI50 (SK-MEL-28 melanoma): > 25 µM
TGI (SK-MEL-28 melanoma): > 25 µM
GI50 (SNB-75 CNS): 4.76 µM
TGI (SNB-75 CNS): > 25 µM
GI50 (UACC-62 melanoma): 17 µM
TGI (UACC-62 melanoma): > 25 µM

Cn1cc2ccccc2c1-c1nc(F)nc(OCC(=O)[C@H]2CCC3[C@@H]4CCC5=CC(=O)CC[C@]5(C)C4[C@@H](O)C[C@@]32C)n1 (stereo not given in full)
TGI (786-0 renal): 30.5 µM
TGI (EKVX NSCLC): 58.8 µM
TGI (K-562 leukemia): 8.94 µM
TGI (KM12 colon): 33.3 µM
TGI (LOX IMVI melanoma): 23.3 µM
TGI (OVCAR-8 ovarian): 18.5 µM
TGI (RPMI-8226 leukemia): 21.3 µM
TGI (SK-MEL-28 melanoma): 31.2 µM
TGI (SNB-75 CNS): 35.2 µM
TGI (UACC-62 melanoma): 36.7 µM

O=Cc1c(O)c(C(=O)Nc2ccc3[nH]c(=O)[nH]c3c2)cc2ccccc12
TGI (786-0 renal): > 100 µM
TGI (EKVX NSCLC): > 100 µM
TGI (K-562 leukemia): > 100 µM
TGI (KM12 colon): > 100 µM
TGI (LOX IMVI melanoma): > 100 µM
TGI (OVCAR-8 ovarian): > 100 µM
TGI (RPMI-8226 leukemia): > 100 µM
TGI (SK-MEL-28 melanoma): > 100 µM
TGI (SNB-75 CNS): > 100 µM
TGI (UACC-62 melanoma): > 100 µM

Cc1cccc(C)c1NC(=O)C(=O)Nn1c(NN)nc2ccccc2c1=O
TGI (786-0 renal): > 100 µM
TGI (EKVX NSCLC): > 100 µM
TGI (K-562 leukemia): > 100 µM
TGI (KM12 colon): > 100 µM
TGI (LOX IMVI melanoma): > 100 µM
TGI (OVCAR-8 ovarian): > 100 µM
TGI (RPMI-8226 leukemia): > 100 µM
TGI (SK-MEL-28 melanoma): > 100 µM
TGI (SNB-75 CNS): > 100 µM
TGI (UACC-62 melanoma): > 100 µM

NC(N)=NS(=O)(=O)c1ccc(Nc2c3ccccc3nc3c(C(=O)Nc4ccc(S(N)(=O)=O)cc4)cccc23)cc1
TGI (786-0 renal): > 100 µM
TGI (EKVX NSCLC): > 100 µM
TGI (K-562 leukemia): > 100 µM
TGI (KM12 colon): > 100 µM
TGI (LOX IMVI melanoma): > 100 µM
TGI (OVCAR-8 ovarian): > 100 µM
TGI (RPMI-8226 leukemia): > 100 µM
TGI (SK-MEL-28 melanoma): > 100 µM
TGI (SNB-75 CNS): > 100 µM
TGI (UACC-62 melanoma): > 100 µM

CCN(CC)c1ccc(C(=O)c2ccc(N(CC)CC)cc2)cc1
GI50 (786-0 renal): 0.668 µM
TGI (786-0 renal): 28.3 µM
GI50 (EKVX NSCLC): 1.19 µM
TGI (EKVX NSCLC): > 70.3 µM
GI50 (K-562 leukemia): 0.15 µM
TGI (K-562 leukemia): 10.2 µM
GI50 (KM12 colon): 0.349 µM
TGI (KM12 colon): 8.89 µM
GI50 (LOX IMVI melanoma): 0.62 µM
TGI (LOX IMVI melanoma): 28.3 µM
GI50 (OVCAR-8 ovarian): 0.72 µM
TGI (OVCAR-8 ovarian): > 38.9 µM
GI50 (RPMI-8226 leukemia): 0.519 µM
TGI (RPMI-8226 leukemia): 6.25 µM
GI50 (SK-MEL-28 melanoma): 23.1 µM
TGI (SK-MEL-28 melanoma): > 100 µM
GI50 (SNB-75 CNS): 0.458 µM
TGI (SNB-75 CNS): > 83.6 µM
GI50 (UACC-62 melanoma): 0.429 µM
TGI (UACC-62 melanoma): > 100 µM

C=C(c1ccccc1)[C@@]1(O)CC[C@@H]1N(CC#N)Cc1ccccc1
TGI (786-0 renal): 35.4 µM
TGI (EKVX NSCLC): > 88.9 µM
TGI (K-562 leukemia): > 74.3 µM
TGI (KM12 colon): > 71.4 µM
TGI (LOX IMVI melanoma): 34.6 µM
TGI (OVCAR-8 ovarian): 52.3 µM
TGI (RPMI-8226 leukemia): > 67 µM
TGI (SK-MEL-28 melanoma): 28.8 µM
TGI (SNB-75 CNS): > 96.5 µM
TGI (UACC-62 melanoma): 32.1 µM

O=C1C(=O)c2cccnc2-c2ncccc21
GI50 (786-0 renal): 1.22 µM
TGI (786-0 renal): 2.5 µM
GI50 (EKVX NSCLC): 0.322 µM
TGI (EKVX NSCLC): 1.29 µM
GI50 (K-562 leukemia): 0.211 µM
TGI (K-562 leukemia): 0.848 µM
GI50 (KM12 colon): 0.409 µM
TGI (KM12 colon): 1.59 µM
GI50 (LOX IMVI melanoma): 0.06 µM
TGI (LOX IMVI melanoma): 0.36 µM
GI50 (OVCAR-8 ovarian): 0.166 µM
TGI (OVCAR-8 ovarian): 0.727 µM
GI50 (RPMI-8226 leukemia): 0.0459 µM
TGI (RPMI-8226 leukemia): 0.399 µM
GI50 (SK-MEL-28 melanoma): 0.472 µM
TGI (SK-MEL-28 melanoma): 1.8 µM
GI50 (SNB-75 CNS): 0.123 µM
TGI (SNB-75 CNS): 1.4 µM
GI50 (UACC-62 melanoma): 0.201 µM
TGI (UACC-62 melanoma): 0.514 µM

CCCCCCCc1cc2c3c(nc4ccccc42)C(=O)c2cccnc2-c3n1
GI50 (786-0 renal): 5.1 µM
TGI (786-0 renal): 10.5 µM
GI50 (EKVX NSCLC): 4.5 µM
TGI (EKVX NSCLC): 9.14 µM
GI50 (K-562 leukemia): 1.29 µM
TGI (K-562 leukemia): > 24.2 µM
GI50 (KM12 colon): 1.45 µM
TGI (KM12 colon): 3.11 µM
GI50 (LOX IMVI melanoma): 2.19 µM
TGI (LOX IMVI melanoma): 7.29 µM
GI50 (OVCAR-8 ovarian): 5.41 µM
TGI (OVCAR-8 ovarian): 16.6 µM
GI50 (RPMI-8226 leukemia): 4.27 µM
TGI (RPMI-8226 leukemia): 12.6 µM
GI50 (SK-MEL-28 melanoma): 5.75 µM
TGI (SK-MEL-28 melanoma): 11 µM
GI50 (SNB-75 CNS): 5.11 µM
TGI (SNB-75 CNS): 10.1 µM
GI50 (UACC-62 melanoma): 5.41 µM
TGI (UACC-62 melanoma): 10.1 µM
